From publication PMC8981238, “C-type cytochrome-initiated reduction of bacterial lytic polysaccharide monooxygenases” (Biochemical Journal, 2021) come the findings set out here.

This experiment deals with T1, CfAA10 (Cellulomonas fimi, UniProt F4H6A3).
T1 construct: gene Celf_0270; apparently with its C-terminal CBM (truncation told only for the C. japonicus enzyme)
Kind of experiment: Amplex Red / horseradish peroxidase coupled H2O2 production, initial rates. In kind it is biochemical. The settings on record: reductant varied, no polysaccharide, O2 from air, 50 mM sodium phosphate pH 6.0, room temperature, 2 µM LPMO.

T1 sequence (F4H6A3 entry or part of it): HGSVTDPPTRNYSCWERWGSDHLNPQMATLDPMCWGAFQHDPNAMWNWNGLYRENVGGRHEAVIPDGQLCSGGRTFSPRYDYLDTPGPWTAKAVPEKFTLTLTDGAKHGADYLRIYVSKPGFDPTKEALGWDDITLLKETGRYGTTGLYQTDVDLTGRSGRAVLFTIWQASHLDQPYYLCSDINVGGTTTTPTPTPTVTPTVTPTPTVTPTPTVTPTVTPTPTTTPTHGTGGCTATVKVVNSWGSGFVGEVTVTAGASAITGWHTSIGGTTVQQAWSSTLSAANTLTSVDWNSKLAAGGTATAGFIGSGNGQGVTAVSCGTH

In the case of `O=C1O[C@H]([C@@H](O)CO)C(O)=C1O` [ascorbate], the KM entry is recorded as “KM is consistently lower when CjX183 is used as the reductant compared with ascorbate”.
